Data: patent US20240391862A1, “(1,4,5-TRISUBSTITUTED-1H-PYRAZOL-3-YL)OXY-2-ALKOXY ALKYL ACIDS AND THEIR DERIVATIVES, THEIR SALTS AND THEIR USE AS HERBICIDAL AGENTS” (Bayer AKtiengesellschaft, priority 2021, published 2024)

What was measured:
KCHSC = assay: Post-emergence herbicidal effect, greenhouse pot test; type: in vivo
Protocol: (§1) Seeds of monocotyledonous and dicotyledonous weeds and crop plants are placed in sandy loam in plastic or organic planting pots, covered with soil and cultivated in a greenhouse under controlled growth conditions. 2 to 3 weeks after sowing, the trial plants are treated at the one-leaf stage. The compounds of the invention, formulated in the form of wettable powders (WP) or as emulsion concentrates (EC), are then sprayed onto the green parts of the plants as aqueous suspension or emulsion with addition of 0.5% additive at a water application rate of 600 l/ha (converted). After the test plants have been kept in the greenhouse under optimum growth conditions for about 3 weeks, the activity of the preparations is rated visually in comparison to untreated controls. For example, 100% activity=the plants have died, 0% activity=like control plants. Tables 20a to 38c below show the effects/crop compatibilities of selected compounds of the general formula (I) on various harmful plants at an application rate corresponding to 20 to 320 g/ha, which were obtained by the trial procedure specified above.

VIOTR = assay: as above; type: in vivo, Viola tricolor
Summary of the method: (§2)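 Greenhouse pot test: weeds and crops sown in sandy loam, sprayed post-emergence at one-leaf stage (2–3 weeks after sowing) with WP or EC formulations plus 0.5% additive at 600 l/ha water, rates 20–320 g/ha. Visual rating about 3 weeks later versus untreated controls (100% = dead, 0% = as control).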

AVEFA = assay: as above; type: in vivo, Avena fatua; settings: visual rating about 3 weeks after treatment
Summary of the method: as §2

ABUTH = assay: as above; type: in vivo, Abutilon theophrasti; settings: visual rating about 3 weeks after treatment
Summary of the method: as §2

SETVI = assay: as above; type: in vivo, Setaria viridis
Summary of the method: as §2

LOLRI = assay: as above; type: in vivo, Lolium rigidum
From the text: (§3) • ALOMY: Alopecurus myosuroides SETVI: Setaria viridis • AVEFA: Avena fatua POLCO: Fallopia convolvulus • AMARE: Amaranthus retroflexus ECHCG: Echinochloa crus-galli • LOLRJ: Lolium rigidum STEME: Stellaria media • VERPE: Veronica persica MATIN: Tripleurospermum inodorum • DIGSA: Digitaria sanguinalis ABUTH: Abutylon threophrasti • TRZAS: Triticum aestivum VIOTR: Viola tricolor • BRSNW: Brassica napus ZEAMX: Zea mays • PHBPU: Ipomoea purpurea GLXMA: Glycine max • ORYSA: Oryza sativa HORMU: Hordeum murinum
as §1, with “plants.” for “plants. Tables 20a to 38c below show the effects/crop compatibilities of selected compounds of the general formula (I) on various harmful plants at an application rate corresponding to 20 to 320 g/ha, which were obtained by the trial procedure specified above.”
(§4) Tables 20a to 38c below show the effects/crop compatibilities of selected compounds of the general formula (I) on various harmful plants at an application rate corresponding to 20 to 320 g/ha, which were obtained by the trial procedure specified above.

DIGSA = assay: as above; type: in vivo, Digitaria sanguinalis; settings: 320 g/ha, visual rating about 3 weeks after treatment
Summary of the method: as §2

VERPE = assay: as above; type: in vivo, Veronica persica
Summary of the method: as §2

PHBPU = assay: as above; type: in vivo, Ipomoea purpurea
Summary of the method: as §2

POLCO = assay: as above; type: in vivo, Fallopia convolvulus
Summary of the method: as §2

ECHCG = assay: as above; type: in vivo, Echinochloa crus-galli
Summary of the method: as §2

ALOMY = assay: as above; type: in vivo, Alopecurus myosuroides
Summary of the method: as §2

ZEAMX = assay: Post-emergence herbicidal effect and crop plant compatibility, greenhouse pot test; type: in vivo, Zea mays; settings: one-leaf stage, rated visually after about 3 weeks vs untreated controls
From the text: as §3
as §1, with “plants.” for “plants. Tables 20a to 38c below show the effects/crop compatibilities of selected compounds of the general formula (I) on various harmful plants at an application rate corresponding to 20 to 320 g/ha, which were obtained by the trial procedure specified above.”
as §4

MATIN = assay: Post-emergence herbicidal effect, greenhouse pot test; type: in vivo, Tripleurospermum inodorum
Summary of the method: as §2

[1] = 320 g/ha, visual rating about 3 weeks after treatment

| SMILES | Post-emergence effect against VIOTR in % (VIOTR; 80 g/ha) [%] | Post-emergence effect against VIOTR in % (VIOTR; 320 g/ha) [%] | Post-emergence effect against AVEFA (AVEFA; 80 g/ha) [%] | Post-emergence effect against AVEFA (AVEFA; 320 g/ha) [%] | Post-emergence effect against ABUTH (ABUTH; 80 g/ha) [%] | Post-emergence effect against ABUTH (ABUTH; 320 g/ha) [%] | Post-emergence effect against SETVI in % (SETVI; 320 g/ha) [%] | Post-emergence effect against LOLRI in % (LOLRI; 320 g/ha) [%] | Post-emergence effect against DIGSA (DIGSA) [%] | Post-emergence effect against VERPE in % (VERPE; 320 g/ha) [%] | Post-emergence effect against PHBPU in % (PHBPU; 80 g/ha) [%] | Post-emergence effect against PHBPU in % (PHBPU; 320 g/ha) [%] | Post-emergence effect against POLCO in % (POLCO; 320 g/ha) [%] | Post-emergence effect against ECHCG in % (ECHCG; 80 g/ha) [%] | Post-emergence effect against ECHCG in % (ECHCG; 320 g/ha) [%] | Post-emergence effect against ALOMY (ALOMY; [1]) [%] | other results |
| --- | --- | --- | --- | --- | --- | --- | --- | --- | --- | --- | --- | --- | --- | --- | --- | --- | --- |
| COC(=O)C(OC)Oc1nn(-c2ncccc2F)c(-c2ccc(F)nc2)c1C1CC1 (stereo not shown) [Example I-108] | 90 | 90 | 90 | 90 | 80 | 90 | 90 | 90 | 90 | 80 | 80 | 90 | 80 | 90 | 90 | 100 | Post-emergence effect against KCHSC in % (KCHSC; 320 g/ha): 90%; pest or weed control at 80 g/ha (KCHSC; 504 h, 80 g/ha, read-out: Post-emergence effect against KCHSC in %): 90%; pest or weed control at 80 g/ha (VERPE; Veronica persica, 504 h, 80 g/ha, read-out: Post-emergence effect against VERPE in %): 80%; pest or weed control at 80 g/ha (ALOMY; Alopecurus myosuroides, 504 h, 80 g/ha, visual rating about 3 weeks after treatment, read-out: Post-emergence effect against ALOMY): 90%; Post-emergence effect at 20 g/ha against ZEAMX in % (ZEAMX; 20 g/ha): 0%; Post-emergence effect at 80 g/ha against ZEAMX in % (ZEAMX; 80 g/ha): 0%; plant injury at 320 g/ha (ZEAMX; Zea mays, 504 h, 320 g/ha, read-out: Post-emergence effect at 320 g/ha against ZEAMX in %): 0% |
| COC(=O)C(OC)Oc1nn(-c2cc(F)ccc2F)c(-c2cncc(F)c2)c1C1CC1 (stereo not shown) [Example I-112] | 80 | 80 | 90 | 90 | 80 | 80 | 80 | 90 | 80 | 80 | 90 | 90 | 80 | 90 | 90 | 90 | pest or weed control at 320 g/ha (KCHSC; 504 h, 320 g/ha, read-out: Post-emergence effect against KCHSC in %): 80%; pest or weed control at 20 g/ha (VIOTR; Viola tricolor, 504 h, 20 g/ha, read-out: Post-emergence effect against VIOTR in %): 80%; pest or weed control at 20 g/ha (AVEFA; Avena fatua, 504 h, 20 g/ha, read-out: Post-emergence effect against AVEFA): 90%; pest or weed control at 20 g/ha (ABUTH; Abutilon theophrasti, 504 h, 20 g/ha, read-out: Post-emergence effect against ABUTH): 80%; Post-emergence effect against SETVI in % (SETVI; 80 g/ha): 80%; Post-emergence effect against MATIN in % (MATIN; 20 g/ha): 80%; Post-emergence effect against MATIN in % (MATIN; 80 g/ha): 80%; Post-emergence effect against MATIN in % (MATIN; 320 g/ha): 80%; Post-emergence effect against LOLRI in % (LOLRI; 80 g/ha): 90%; Post-emergence effect against VERPE in % (VERPE; 20 g/ha): 80%; Post-emergence effect against VERPE in % (VERPE; 80 g/ha): 80%; Post-emergence effect against PHBPU in % (PHBPU; 20 g/ha): 90%; Post-emergence effect against POLCO in % (POLCO; 80 g/ha): 80%; Post-emergence effect against ECHCG (ECHCG; 20 g/ha, visual rating about 3 weeks after treatment): 90%; Post-emergence effect at 20 g/ha against ALOMY in % (ALOMY; 20 g/ha, one-leaf stage, rated visually after about 3 weeks vs untreated controls): 80%; Post-emergence effect against ALOMY (ALOMY; 80 g/ha, visual rating about 3 weeks after treatment): 90% |
